These results are taken from patent US12090147B2, “Combination therapy with 2-(4-chlorophenyl)-N-((2-(2,6-dioxopiperidin-3-yl)-1-oxoisoindolin-5-yl)methyl)-2,2-difluoroacetamide” (Celgene Corporation, priority 2019, dated 2024).

Structures are written as SMILES.

Usually IC50 stands for the midpoint of a concentration-inhibition curve. Higher therefore signals a need for much substance.

One series has as its system NOMO-1. As to the kind of experiment: Cell viability (CELL TITER-GLO), Compound 1 IC50. In kind it is cell-based. The following applies: Homo sapiens; NOMO-1 (macrophage, FAB M5a). How it is done: (§1) For CELL TITER-GLO® (CTG; Promega) and Incucyte assays, cells were seeded at 0.1 million per mL, 50 μL per well of Corning black 384-well plate and allowed set overnight. The next day, test compounds were dispensed using a Tecan D300e digital dispenser according to manufacturer's instruction.
(§2) Human AML cell lines, HL-60 (CCL-240), KG-1 (CCL-246), ML-2 (ACC-15), MOLM-13 (ACC-554), MV-4-11 (CRL-9591), NOMO-1 (ACC-542), TF-1 (CRL-2003), THP-1 (TIB-202), and U937 (CRL-1593) were obtained from American Type Culture Collection (ATCC; Manassas, VA) or Deutsche Sammlung von Mikroorganismen and Zellkulturen (DSMZ, Germany) cell banks. Acute myeloid leukemia cell lines were maintained in RPMI-1640 (ATCC Cat No. 30-2001) containing 20% fetal bovine serum (FBS) (Corning Cat No. 35-010-CV) and maintained in humidified incubators at 5% carbon dioxide.
(§3) AML cell lines and primary AML were treated in duplicate or triplicates with DMSO or test compounds in 384-well plates for 3 days. Cell viability was determined by CELL TITER-GLO® (CTG; Promega) assay kit according to manufacturer's instructions. Apoptosis was monitored using Caspase 3/7 Green reagent (Essen Biosciences Cat No. 4440). Caspase-3/7 activation levels were quantified using the IncuCyte™ ZOOM basic analyzer.
(§4) Cell proliferation (CTG) and caspase 3/7 activation (IncuCyte) were analyzed using GraphPad Prism. Electrochemiluminescence data was analyzed using MSD Discovery Workbench platform.
Background: In ATP-based viability assays light output follows the ATP content of the culture.

Another series deals with TF-1. As to the kind of experiment: Cell viability (CELL TITER-GLO), Compound 1 IC50. It counts as cell-based. The conditions noted are these: Homo sapiens; TF-1 (erythroblast, FAB M6). The procedure:
as §1, §2, §3, §4

In another series the test system is U937. As to the kind of experiment: Cytokine induction, electrochemiluminescence assay of culture supernatant. It counts as cell-based, human. How it is done: For cytokine assays on AML cell lines, cells were seeded at 1 million per mL, 3 mL per well of 6-well plates and allowed set overnight. The next day, cells were treated with 3 μL 1000× working stock of compounds of interest.
as §2
(§5) IL-1α (Meso Scale Disgnostics, Cat No. K151RBD), IL-1β (Meso Scale Disgnostics, Cat No. K151QPD), IL-1RA (Meso Scale Disgnostics, Cat No. K151WTD), IL-18 (Meso Scale Disgnostics, Cat No. K151VJK), TNFa (Meso Scale Disgnostics, Cat No. K151QWD), VEGF Meso Scale Disgnostics, Cat No. K151RHD) levels were measured by (Meso Scale Disgnostics assay kits following manufacturer's instructions. Measurements were made on a MESO™ SECTOR S 600 plate reader (Meso Scale Disgnostics).
as §4
(§6) The level of intracellular pro IL-1β and released IL-1β in eight AML cell lines and normal PBMC treated with a titration of Compound 1 over a 48 hour period was assessed. (see FIGS. 1A-1C, Table 2). Supernatant IL-1βb level was induced over 5 fold in 6 out of 8 AML cell lines and normal PBMC upon Compound 1 treatment compared to DMSO (FIGS. 1A, 1B, and 1C, Table 2).

For series [1], the system named is Normal Peripheral Blood Mononuclear Cells. The description is as above. In kind it is cell-based, human. The conditions noted are these: PBMC. How it is done:
(§7) Normal PBMCs were purchased from AllCells (Cat No. PB006F). Primary AML BMMC in were purchased from Conversant (SKU ID: BBM1000-E1110036458110215SH) or Fidelis Research (AML55, AML57, AML73, AML74, AML76, AML79, AML80, AML81, AML84, AML95). Bone marrow from health donor was purchased from StemCell Technologies (Cat No. 70001.2).
Normal PBMCs were cultured in RPMI-1640 (ATCC Cat No. 30-2001) containing 20% fetal bovine serum (Corning Cat No. 35-010-CV). Primary AML and bone marrows were cultured in Complete Medium Cytokines 1X: StemSpam™ Serum-Free Expansion Medium (StemCell Technologies Cat No. 09650) supplemented with 50 ng/mL Stem Cell Factor (Peprotech Cat No. 300-07), 50 ng/mL recombinant Human FLT3-Ligand (Peprotech Cat No. 300-19), 20 ng/mL recombinant human-interleukin-3 (Peprotech Cat No. 200-03), […] recombinant human-interleukin-6 (Peprotech Cat No. 200-06), 1 μM StemRegenin (StemCell Technologies Cat No. 72342), penicillin/streptomycin (Invitrogen Cat No. 15140122).
as §5, §4, §6

The subject of series [2] is bone marrow mononuclear cells (BMMC) from primary AML patients. As to the kind of experiment: Secreted IL-1β in primary bone marrow mononuclear cells ex vivo. In kind it is cell-based, human. How it is done:
For cytokine assays on primary AML and healthy bone marrow cells, cells were seeded at 0.2 million in 150 μL media per well of ultra-low attachment 96-well plate in duplicates. Cell culture media was collected 24 and 48 hours post-treatment with Compound 1 and/or LPS. Cells were pelleted, fixed in 1.6% PFA and froze down for flow cytometry analysis.
as §7
Normal PBMCs were cultured in RPMI-1640 (ATCC Cat No. 30-2001) containing 20% fetal bovine serum (Corning Cat No. 35-010-CV). […]
IL-1α (Meso Scale Disgnostics, Cat No. K151RBD), IL-1β (Meso Scale Disgnostics, Cat No. K151QPD), IL-1RA (Meso Scale Disgnostics, Cat No. K151WTD), IL-18 (Meso Scale Disgnostics, Cat No. K151VJK), TNFa (Meso Scale Disgnostics, Cat No. K151QWD), VEGF Meso Scale Disgnostics, Cat No. K151RHD) levels were measured by (Meso Scale Disgnostics assay kits following manufacturer's instructions. Measurements were made on a MESO™ SECTOR S 600 plate reader (Meso Scale Disgnostics). […]

The subject of series [3] is ML-2, MV4-11 and MOLM13 cell lines. As to the kind of experiment: VEGF and TNFa levels, electrochemiluminescence assay. The conditions noted are these: compared to other mechanistic agents. In kind it is cell-based, human. How it is done: as §5
To further explore the mechanisms underlying IL-1β induction by Compound 1, and compounds with different, but related mechanisms to Compound 1 were tested in three AML cell lines, ML-2, MV4-11 and MOLM-13 (FIG. 4 and FIG. 5). Compound 1 degrades GSPT1 through cereblon mediated protein degradation, which leads to global translation inhibition, activation of ISR and subsequently apoptosis. […] To assess if GSPT1 degradation leads to pan-cytokine induction or specific to IL-1β, the compound effect was compared on the levels of two other known hypotension inducing cytokines, TNFa and VEGF (FIG. 7).

The next series in a line: Hygroscopicity. It counts as physicochemical.
The conditions of series [4]: pH 5.
Another series has as its system MV4-11. Put plainly: Cytokine induction, electrochemiluminescence assay of culture supernatant. It counts as cell-based, human. The following applies: compounds at 1 μM, 72 hours.

On to `O=C1CCC(N2Cc3cc(CNC(=O)C(F)(F)c4ccc(Cl)cc4)ccc3C2=O)C(=O)N1` (stereo not drawn) [Compound 1, 2-(4-chlorophenyl)-N-((2-(2,6-dioxopiperidin-3-yl)-1-oxoisoindolin-5-yl)methyl)-2,2-difluoroacetamide], for which the IC50 was 57.8 nM in the series on NOMO-1 and 105 nM in the series on TF-1. The IL-1β induction in the series on U937 was 1.28; in series [1], 1.88. Besides, the IL-18 induction with U937 came out at 0.41; in series [1] it was 0.90. The “IL-1β in cell culture supernatant, FAB M0/M1/M2 AML BMMC” value in series [2] (four M0/M1/M2 samples) is listed as “not able to induce IL-1β”. Moreover, in series [2] (two out of five M4/M5 samples, 24 and 48 hours post treatment), the “IL-1β in cell culture supernatant, FAB M4/M5 AML BMMC” value is reported as “marked induction of IL-1β”. The “VEGF and TNFa levels” value in series [3] was “did not induce more VEGF nor TNFa compared to other mechanistic agents”. In addition, in the series “Hygroscopicity”, the Hygroscopicity entry was “Not hygroscopic”. The “Solution Stability” value in series [4] is on record as “DS is not stable in solution at pH of 5.0 or above”. In addition, the “Secreted IL-1β levels, panel of mechanistic compounds” value in the series with MV4-11 is on record as “produced markedly more secreted IL-1β compared to all other compounds tested”.
